Some test systems named below: 786-0 renal; A498 renal; DU-145 prostate; HCT-116 colon; HCT-15 colon; MCF7 breast; NCI-H460 lung; NCI-H522 lung; SN12C renal; SNB-75 CNS; HL-60(TB) leukemia.
Holding throughout (test): growth of human tumour cells (NCI), 48 h

Our source for the TGI values is PubChem BioAssay (NCI).

Molecules are shown by their SMILES.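 Assay format: 96-well plates, 48-hour exposure. The concentration for full growth arrest is given as TGI.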

In the case of `COC(=O)CNC(=O)CNC(=O)CSc1nnc(COc2ccc(Cl)cc2)n1-c1ccccc1`, the TGI in the test with 786-0 renal, with A498 renal, in the test with DU-145 prostate, in the test with HCT-116 colon, in the test with HCT-15 colon and in the test on MCF7 breast was greater than 100 µM each time. Further, the TGI in the test with NCI-H460 lung is greater than 100 µM; with NCI-H522 lung it was 31.8 µM; in the test with SN12C renal, greater than 100 µM; in the test on SNB-75 CNS, 60.2 µM.
On to `CCN(CC)C(=S)/N=C(\SC(=S)N(CC)CC)c1ccccc1`, for which the TGI in the test on 786-0 renal is greater than 100 µM; in the test on A498 renal, greater than 100 µM; in the test on DU-145 prostate, greater than 87.9 µM; in the test on HCT-116 colon, 20.9 µM; in the test with HCT-15 colon, greater than 100 µM; in the test on MCF7 breast it was greater than 100 µM. The TGI was greater than 100 µM in the test with NCI-H460 lung, 3.39 µM in the test on NCI-H522 lung, greater than 100 µM with SN12C renal and greater than 100 µM in the test on SNB-75 CNS.
Take `COc1ccc2nc3c(C)cc4ccccc4n3c2c1`: the TGI with 786-0 renal was greater than 100 µM; in the test with A498 renal, 65.4 µM; in the test with DU-145 prostate, greater than 100 µM; in the test with HCT-116 colon, greater than 100 µM; with HCT-15 colon it was greater than 100 µM; in the test on HL-60(TB) leukemia, greater than 100 µM. For the same compound, the TGI in the test with MCF7 breast, with NCI-H460 lung, in the test with SN12C renal and in the test with SNB-75 CNS was greater than 100 µM throughout.
`CCOC(=O)NC(Nc1ccc(S(=O)(=O)Nc2ccc(OC)nn2)cc1)(C(F)(F)F)C(F)(F)F`: the TGI is 59 µM in the test on 786-0 renal; 54.6 µM with A498 renal; greater than 100 µM in the test with DU-145 prostate; 44.5 µM with HCT-116 colon; greater than 100 µM with HCT-15 colon; 58.2 µM in the test on HL-60(TB) leukemia. Further, the TGI was greater than 100 µM in the test with MCF7 breast, greater than 100 µM in the test with NCI-H460 lung, 83.9 µM in the test with SN12C renal and greater than 100 µM in the test on SNB-75 CNS.
Take `C=C1C2C[C@@H]3O[C@H]4C[C@H]5O[C@@]6(C[C@@H]7O[C@]8(C[C@H](C)[C@@H]9O[C@@H]%10CC(C=O)O[C@@H]%10C[C@@H]9O8)C[C@H](C)[C@@H]7O6)C[C@H]5O[C@H]4[C@H](C)[C@H]3OC(=O)C[C@H]3CC[C@@H]4OC5[C@H]6O[C@]7(CC[C@H]8CC(=C)[C@H](CC[C@@H](C[C@H]1C)O2)O8)CC6O[C@@H]5[C@@H](O7)[C@H]4O3` (stereo partly drawn): the TGI with 786-0 renal was 0.971 µM; in the test on A498 renal, greater than 1 µM; in the test on DU-145 prostate, greater than 1 µM; with HCT-116 colon, greater than 1 µM; in the test with HCT-15 colon, 0.00609 µM; in the test with MCF7 breast, greater than 1 µM. Further, the TGI was greater than 1 µM in the test on NCI-H460 lung, less than 0.0001 µM in the test on NCI-H522 lung, greater than 1 µM with SN12C renal and greater than 1 µM in the test with SNB-75 CNS.
As for `COc1ccc(C(OC(=O)[C@H](O[Si](C)(C)C(C)(C)C)[C@@H](NC(=O)c2ccccc2)c2ccccc2)c2ccc(OC)cc2)cc1`, the TGI in the test on 786-0 renal, in the test with A498 renal, with DU-145 prostate, in the test on HCT-116 colon, in the test with HCT-15 colon and in the test with MCF7 breast was greater than 100 µM each time. The TGI in the test with NCI-H460 lung, in the test on NCI-H522 lung, in the test with SN12C renal and in the test with SNB-75 CNS was greater than 100 µM in each case.
On to `CN1C(=O)N/C(=C\c2ccc(S(=O)(=O)N/N=C/c3ccccc3)cc2)C1=O`, for which the TGI in the test with 786-0 renal, in the test on A498 renal, in the test with DU-145 prostate, in the test on HCT-116 colon, in the test on HCT-15 colon and in the test on HL-60(TB) leukemia was greater than 100 µM throughout. The TGI with MCF7 breast was 68.5 µM; with NCI-H460 lung, 34.4 µM; in the test with SN12C renal, greater than 100 µM; in the test on SNB-75 CNS it was greater than 100 µM.
For the compound `CCOc1ccc(N2C(=O)NC3(c4ccccc4)N(C)C(=O)N(C)C23c2ccccc2)cc1` (stereo not drawn), the TGI in the test with 786-0 renal, with A498 renal, in the test with DU-145 prostate, in the test on HCT-116 colon, with HL-60(TB) leukemia and with MCF7 breast was greater than 100 µM in each case. For the same compound, the TGI was greater than 100 µM in the test with NCI-H522 lung, greater than 100 µM in the test on SN12C renal and 63.5 µM with SNB-75 CNS.
As for `Cc1cccc2c(N)c3cccc(C(=O)NCC[N+](C)(C)Cc4ccc(S(C)(=O)=O)cc4)c3nc12`, the TGI was greater than 100 µM with 786-0 renal; 65 µM in the test on A498 renal; greater than 100 µM with DU-145 prostate; greater than 100 µM in the test on HCT-116 colon; greater than 100 µM in the test on HCT-15 colon; 38.6 µM in the test with HL-60(TB) leukemia. In addition, the TGI with MCF7 breast, with NCI-H460 lung, in the test with SN12C renal and in the test on SNB-75 CNS was greater than 100 µM in each case.
Turning to `Cc1cc(O)c2c(c1)C(C1OC(CO)C(O)C(O)C1O)c1cc(O)cc(O)c1C2=O` (stereo not drawn), the TGI with 786-0 renal, in the test on A498 renal, in the test on DU-145 prostate, with HCT-116 colon, with HCT-15 colon and in the test with HL-60(TB) leukemia was greater than 100 µM throughout. The TGI in the test with MCF7 breast, in the test with NCI-H460 lung, with SN12C renal and in the test with SNB-75 CNS was greater than 100 µM in each case.
Turning to `CCCCCCCCCC(=O)NCCc1c[nH]c2ccc(OC)cc12`, the TGI amounted to 38.7 µM with 786-0 renal; 29.9 µM in the test on A498 renal; 42.1 µM with DU-145 prostate; 43.5 µM in the test on HCT-116 colon; 36.2 µM in the test with HCT-15 colon; 33.7 µM in the test with MCF7 breast. The TGI was determined as 50.1 µM with NCI-H460 lung, 32.1 µM with NCI-H522 lung, 33.1 µM with SN12C renal and 44 µM in the test with SNB-75 CNS.
Regarding `COC(=O)CN=C1NC(=S)N(Cc2ccc(OC)cc2)C12CCCC2`, the TGI in the test with 786-0 renal, in the test with A498 renal, in the test with DU-145 prostate, in the test on HCT-116 colon, in the test on HCT-15 colon and in the test with MCF7 breast was greater than 100 µM in each case. In addition, the TGI in the test with NCI-H460 lung, with NCI-H522 lung, in the test on SN12C renal and in the test with SNB-75 CNS was greater than 100 µM in each case.
On to `O=c1oc2ccc3ccccc3c2cc1-c1nc(-c2ccc([N+](=O)[O-])cc2)n[nH]1`, for which the TGI with 786-0 renal, with A498 renal, in the test on DU-145 prostate, with HCT-116 colon, with HCT-15 colon and with HL-60(TB) leukemia was greater than 100 µM each time. For the same compound, the TGI with MCF7 breast, with NCI-H460 lung and in the test with NCI-H522 lung was greater than 100 µM throughout.
In the case of `Fc1cc(C2=Nn3c(CNc4ccc(Cl)cc4)nnc3S/C2=C\c2ccc(-c3ccc(Cl)cc3)o2)c(Cl)cc1Cl`, the TGI in the test on 786-0 renal is greater than 100 µM; in the test on A498 renal, 65.6 µM; in the test with DU-145 prostate, greater than 100 µM; in the test with HCT-116 colon, greater than 100 µM; in the test on HCT-15 colon it was greater than 100 µM; with HL-60(TB) leukemia, greater than 100 µM. Further, the TGI in the test on MCF7 breast, in the test with NCI-H460 lung, with NCI-H522 lung and with SN12C renal was greater than 100 µM throughout.
On to `CSCCC(NC(=O)Cc1ccc(C(=O)c2ccccc2)cc1)C(=O)N1CCN(CCCCN2c3ccccc3Sc3cc(N=[N+]=[N-])ccc32)CC1` (stereo not drawn), for which the TGI with 786-0 renal, in the test on A498 renal, with DU-145 prostate, in the test with HCT-116 colon, in the test on HCT-15 colon and in the test with HL-60(TB) leukemia was greater than 100 µM in each case. Moreover, the TGI with MCF7 breast, in the test on NCI-H460 lung, with NCI-H522 lung and in the test with SN12C renal was greater than 100 µM in each case.
As for `Fc1ccc(Oc2nc3ccccc3nc2-c2ccccc2)cc1`, the TGI with 786-0 renal, with A498 renal, in the test with DU-145 prostate, with HCT-116 colon, in the test on HCT-15 colon and with HL-60(TB) leukemia was greater than 100 µM in each case. For the same compound, the TGI in the test on MCF7 breast, with NCI-H460 lung, with NCI-H522 lung and in the test with SN12C renal was greater than 100 µM each time.
For the compound `COc1ccc(-c2[nH]c(-c3ccc(OC)cc3)c(-c3ccccn3)c2-c2ccccn2)cc1`, the TGI with 786-0 renal, in the test with A498 renal, in the test with DU-145 prostate, with HCT-116 colon, in the test on HCT-15 colon and in the test on HL-60(TB) leukemia was greater than 100 µM in each case. For the same compound, the TGI in the test on MCF7 breast, in the test with NCI-H460 lung, with SN12C renal and in the test with SNB-75 CNS was greater than 100 µM throughout.
With `CCCCC(O)(c1ccccc1)C(O)(c1ccccc1)c1c(F)c(F)c(F)c(F)c1F` (stereo not drawn), the TGI was 39.4 µM in the test on 786-0 renal; 49.4 µM in the test with A498 renal; greater than 100 µM with DU-145 prostate; 65 µM with HCT-116 colon; 30.1 µM in the test with HCT-15 colon; 61.9 µM in the test on HL-60(TB) leukemia. Further, the TGI in the test on MCF7 breast was 53.1 µM; with NCI-H460 lung it was 54.4 µM; in the test on SN12C renal, 31.1 µM; in the test with SNB-75 CNS it was greater than 100 µM.
